Laboratory results taken from publication PMC6917776, “Discovery of a chemical probe for PRDM9” (Nature Communications, 2019).

Assays:
Test in all cases: CelltiterGlo viability cell assay
Type in all cases: cell-based
RPMI-8226 = settings: up to 30 μM; days 3 and 6; matched control line
Protocol: (§1) Supplementary Figure 13. […] Viability of
(§2) (a) Multiple Myeloma lines and (b) Breast Cancer cell lines following 3 or 6 days treatment with […]
(§3) manufacturer’s instructions as described in the Supplementary methods. Data are normalized to DMSO control. N=3 biological replicates, +/- SEM. Source data are provided as a Source Data […]
(§4) CelltiterGlo viability cell assay
(§5) Cells were seeded in 96 well plates at per-well densities of 10000 (MDA-MB436, ATCC-HTB130), 15000 (8226, kind gift from Rodger Tiedemann, Princess Margaret Cancer Centre), […]
(§6) kind gift from Rodger Tiedemann, Princess Margaret Cancer Centre) and 50000 (CAL851, kind gift from Mathieu Lupien, Princess Margaret Cancer Centre) and were treated at increasing concentrations of compounds ranging from 0.01 μM to 30 μM and assessed for proliferation using CelltiterGlo (Promega) following manufacturer’s instructions, as readout on days 3 and 6 as indicated. All cell lines were mycoplasma negative, as determined by MycoAlert™ Mycoplasma Detection Kit(Lonza). […]

HCC1143 = settings: up to 30 μM; days 3 and 6; matched control line
Protocol: as §1, §2, §3, §4, §5, §6

SKMM2 = settings: up to 30 μM; days 3 and 6; Prdm9 expressing line
Protocol: as §1, §2, §3, §4, §5, §6

MDA-MB-436 = settings: up to 30 μM; days 3 and 6; matched control line
Protocol: as §1, §2, §3, §4, §5, §6

HCC1806 = settings: up to 30 μM; days 3 and 6; Prdm9 expressing line
Protocol: as §1, §2, §3, §4, §5, §6

CAL851 = settings: up to 30 μM; days 3 and 6; Prdm9 expressing line
Protocol: as §1, §2, §3, §4, §5, §6

Measured: Effect on proliferation (in words)

COc1cc(OC)cc(-c2noc(N3CCN(C)C4(CCN(c5ccnc(C)c5)CC4)C3)n2)c1 [MRK-740]
did not have any significant effect: all assays above
